According to patent US7601739B2, “Compounds having antiestrogenic and tissue selective estrogenic properties, and compounds with anti-androgenic properties for treatment of prostate cancer and androgen receptor dependent diseases” (Virgina Commonwealth University, priority 2006, dated 2009):

Columns and labels:
hERα [1] = target: T1, hERα (Homo sapiens, UniProt P03372); test: Yeast two-hybrid and filter lift assay of hERα dimerization; type: cell-based
T1 construct: the full length hERα was inserted into pGAD-GAL4 and pGBD-GAL4 vectors; expressed in transfected cells; host or cells: S. cerevisiae Y190 transformed with pGBT-hER (pGBKT7) and pGAD-hER (pGADT7)
T1 sequence (P03372 1-595) 1: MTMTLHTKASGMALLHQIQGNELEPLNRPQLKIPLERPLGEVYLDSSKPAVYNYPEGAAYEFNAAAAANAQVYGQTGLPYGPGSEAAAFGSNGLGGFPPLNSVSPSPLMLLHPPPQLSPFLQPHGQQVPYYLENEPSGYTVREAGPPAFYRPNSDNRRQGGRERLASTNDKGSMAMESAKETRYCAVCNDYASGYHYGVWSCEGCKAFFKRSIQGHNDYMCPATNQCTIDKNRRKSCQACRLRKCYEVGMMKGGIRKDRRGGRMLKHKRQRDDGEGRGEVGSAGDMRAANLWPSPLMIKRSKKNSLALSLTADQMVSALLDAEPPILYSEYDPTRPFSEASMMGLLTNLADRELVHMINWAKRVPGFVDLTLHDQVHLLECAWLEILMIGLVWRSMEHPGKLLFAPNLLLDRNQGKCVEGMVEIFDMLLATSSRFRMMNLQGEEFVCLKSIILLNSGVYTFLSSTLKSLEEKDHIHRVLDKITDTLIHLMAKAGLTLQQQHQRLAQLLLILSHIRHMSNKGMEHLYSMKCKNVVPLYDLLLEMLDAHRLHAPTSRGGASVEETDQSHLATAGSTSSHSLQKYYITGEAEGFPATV
T1 sequence (P03372 1-595) 2: T1 sequence (P03372 1-595) 1
Procedure: The transformed yeasts with yeast two-hybrid vectors were cultured in synthetic medium lacking trytophan, and leucine. […] After that, the membranes were soaked in 0.4 ml Z-buffer/Xgal (60 mM Na2HPO4, 40 mM NaH2PO410 mM KCl, 1 mM MgSO4, 0.1% SDS, 50 mM -mercaptoethanol, 20 mM Xgal). The pictures of the results were taken within 2 and 3 hours after the -galactosidase assay was processed.
Dimerization of estrogen receptor plays an essential role in regulating estrogen receptor's functions including DNA binding, transactivation, and coactivator recruitment. In this study, yeast two hybrid and filter lift assays were used to determine the ability of compounds 2 and 6 to interrupt the dimerization of hERα. For setting up yeast two hybrid assay, the full length hERα was inserted into pGAD-GAL4 and pGBD-GAL4 vectors. In pGBD-GAL4, hERα was fused to the GAL4 DNA binding domain through its N terminus. In pGAD-GA14, hERα was fused to the GAL4 activation domain through its N terminus. When the dimerization of hERα occurs mainly through its C terminus, the GAL4 DNA binding domain binds to the repeated GAL4 response element located in front of the β-gal reporter gene and the whole complex, GAL4-BD/hERα/hERα/GAL4-AD, turns on the synthesis of the product of β-gal reporter gene. […] Filter lift assay in which X-gal was used, was employed to qualitatively determine the activity of β-galactosidase.

MDA-MB-231 cells = test: hER negative breast cancer cell proliferation assay; type: cell-based, human; details: hER negative cell line
Procedure: (§1) MCF-7 or MDA-MB-231 cells were inoculated into 12-well culture plates at 10000 cells in 2 ml maintained medium per well. Cells were allowed to attach to the bottom for 24 hrs incubation, then the seeding medium was removed and replaced by the experimental medium (phenol red-free DMEM supplemented with 5% charcoal-stripped fetal bovine serum and Penicillin (100 unit/ml)/Streptomycin ([…])). After 24 hr incubation, the test molecules dissolved in DMSO were added in the wells. […] The culture was continued for 3 days and the medium and tested compounds were replaced every two days. The final cell numbers were estimated with CellTiter proliferation assay kit (Promega, Madison, Wis.) by measuring the absorbance at 570 nm, which is directly proportional to the number of living cells in the culture.
In this assay, MDA-MB-231 breast cancer cell line, a hER negative cell line, was used. DMSO was used as reference.

MCF-7 cells = test: hERα positive breast cancer cell proliferation assay; type: cell-based, human
Procedure: as §1
MCF-7 cell line was used to perform this assay and the description of this assay as mentioned above. […] DMSO was used as reference.

hER = test: Fluorescence-based competitive binding assay for hER (displacement of fluormone ES2); design: species or system human; details: RBA = IC50 of tamoxifen/IC50 of test molecule; tamoxifen set at 1
Procedure: The estrogen receptor competitor assay kits (Panvera, Madison, Wis.) were used to determine the ability of test molecules to displace the fluormone, ES2, from hER -ES2 or hER -ES2 complex. Serial dilutions of each test molecule were prepared in methanol or DMSO. The recombinant hER or hER (7 nM) was preincubated with ES2 (1 nM) in screening buffer. After the preincubation, the test molecules and ER-ES2 complex solution were added into the 96-well microplate to produce a final volume of 100 μl per well. The reaction was incubated at room temperature for 1 hr and the polarization values were measured by using fluorescence microplate reader, Polarion (Tecan, Research Triangle Park, N.C.) with excitation wavelength 495 nm and emission wavelength 535 nm. The polarization value versus test molecule concentration curves was analyzed by graphfit software to generate IC50 values.
In this assay, recombinant hER and the commercial synthetic estrogen, ES2 containing fluorescence polarization property, are used. This assay is a homogenous assay. When the assay solution only contains ES2, the solution exerts weak fluorescence polarization property due to the quick rotation of free ES2 molecule. […] Addition of the antiestrogen to the ES2/hER displaces ES2 from hER and results in the whole solution exerting less fluorescence polarization property than the solution without antiestrogen.

hERα [2] = target: T2, hERα (Homo sapiens, UniProt P03372); test: Transient transfection reporter assay for hERα in MCF-7 cells; type: cell-based; design: Relative Estrogenic Activity: dose or concentration left out as unconfirmed
T2 construct: mammalian expression plasmid containing full length human ER cDNA, pCMV-hER; expressed in transfected cells; host or cells: MCF-7 human breast cancer cells
T2 sequence (P03372 1-595): T1 sequence (P03372 1-595) 1
Procedure: For the transient transfection reporter assays, the cells were plated in triplicate in 12-well plates at a density of 300000 cells/well in the phenol red-free DMEM (GIBCO/BRL, Grand Island, N.Y.) supplemented with 10% charcoal-stripped fetal bovine serum (Hyclone, Logan, Utah), Penicillin (100 unit/ml)/Streptomycin ([…]), 2 mML-glutamine and 1 mM sodium Pyruvate. 24 hrs later, the cells were transfected with three plasmids by using Superfect transfection kit (Qiagen, Valencia, Calif.). For the detection of hER activity, cells were transfected with 2 g hER expression plasmid (pCMV-ER ), 6 g luciferase reporter plasmid containing estrogen receptor response element (PGL-TATA-Luc), and 600 ng normalization control, β-galactosidase reporter plasmid (pCMV ). For the detection of hER activity, cells were transfected with 3 ug hER expression plasmid (pcDNA3.1-hER), 6 g luciferase reporter plasmid containing estrogen receptor response element (PGL-TATA-Luc), and 600 ng pCMV. For determining the influence of ER's major coactivator in breast, AIB 1, 2 g pcDNA3.1-AIB1 was added into the transfection plasmid solution mentioned previously.
The transfected cells were rinsed with PBS and treated with various concentrations of test molecules and one […] (vehicle, DMSO or methanol) in phenol red-free culture medium. After incubation for further 24 hrs, the cells were washed with PBS and lysed with lysis buffer (Pierce, Rockford, Ill.). The lysate was used to determine the luciferase activity for ER's activity and the β-galactosidase activity for the normalization of transfection efficiency.
For the luciferase activity assay, 20 μl of lysate and 100 μl luciferase assay buffer (Promega, Madison, Wis.) were added into a well of 96-well plate. The luminescence was detected by using luminescence microplate reader, LumiCount (Packard, Boston, Mass.). For the β-galactosidase activity assay, […] β-galactosidase assay buffer (Clontech, Palo Alto, Calif.) were added into a well of 96-well plate. The β-galactosidase activity was measured as luminescence strength by using luminescence microplate reader, LumiCount (Packard, Boston, Mass.). The normalized reporter activity was calculated by the luciferase activity divided by that of β-galactosidase.
The transient transfection reporter assay was used to determine the estrogenic or antiestrogenic activity of tested compounds in employed human breast cancer cells, MCF-7 cells that are cotransfected with hERα expression and reporter plasmids. […] […] The estrogenic (antiestrogenic) activity was determined by dividing the luciferase activity by the β-galactosidase activity. To determine the influence of estrogen receptor's major coactivator in breast cancer, AIB1, for the compounds' estrogenic activity, the expression vector of AIB1 was additionally cotransfected with the plasmids mentioned above.

mutant hART877A = target: T3, mutant hART877A (Homo sapiens, UniProt P10275, T878A); test: Transient transfection reporter assay in LNCaP cells expressing mutant hAR; type: cell-based
T3 construct: LNCaP cells expressing a novel mutant hART877A; endogenous in cells; host or cells: LNCaP prostate cancer cells (transfected only with reporter plasmids, as far as printed)
T3 sequence (P10275 1-920 T878A): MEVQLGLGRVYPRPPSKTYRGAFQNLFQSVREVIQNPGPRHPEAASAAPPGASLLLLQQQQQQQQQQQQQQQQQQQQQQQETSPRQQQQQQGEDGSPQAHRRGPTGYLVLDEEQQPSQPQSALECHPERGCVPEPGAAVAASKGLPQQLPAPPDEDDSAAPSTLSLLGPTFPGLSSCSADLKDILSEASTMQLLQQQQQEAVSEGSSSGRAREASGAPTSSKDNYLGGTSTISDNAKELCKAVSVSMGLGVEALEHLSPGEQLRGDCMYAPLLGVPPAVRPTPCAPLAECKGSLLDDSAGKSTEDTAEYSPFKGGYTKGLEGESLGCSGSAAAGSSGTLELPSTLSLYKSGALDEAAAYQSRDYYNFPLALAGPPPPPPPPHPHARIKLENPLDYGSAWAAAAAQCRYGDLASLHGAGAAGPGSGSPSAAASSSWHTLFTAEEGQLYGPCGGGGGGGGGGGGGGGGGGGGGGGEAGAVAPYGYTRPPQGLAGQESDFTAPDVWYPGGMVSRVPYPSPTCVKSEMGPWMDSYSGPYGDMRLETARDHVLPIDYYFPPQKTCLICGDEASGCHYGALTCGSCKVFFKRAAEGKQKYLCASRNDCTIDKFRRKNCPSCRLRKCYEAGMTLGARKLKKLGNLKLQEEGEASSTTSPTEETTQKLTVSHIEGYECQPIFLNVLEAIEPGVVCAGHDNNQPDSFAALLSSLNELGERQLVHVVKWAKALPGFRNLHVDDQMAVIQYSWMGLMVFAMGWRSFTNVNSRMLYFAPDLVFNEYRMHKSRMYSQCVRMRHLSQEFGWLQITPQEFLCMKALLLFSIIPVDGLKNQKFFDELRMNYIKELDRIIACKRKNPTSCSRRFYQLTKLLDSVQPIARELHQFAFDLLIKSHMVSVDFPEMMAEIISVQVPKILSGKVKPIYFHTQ
Description: To determine the agonist and antagonist activity of these compounds, the transient transfection reporter assay in HepG2 cells were employed. […] Apart from the testing against wild type hAR, because hAR mutation is one of the important factors for antiandrogen-resistant symptoms discovered in advance prostate cancer patients, we also employed transient transfection reporter assay in the prostate cancer cell line, LNCaP cells expressing a novel mutant hART877A.

| Compound | inhibitory activity against hERα dimerization in combination with estrogen (hERα [1]; combined with estrogen) | induction of hERα dimerization, compound alone (hERα [1]; tested alone) | proliferation effects against MDA-MB-231 cells (FIG. 6, words) (MDA-MB-231 cells) | inhibition effects against MCF-7 cell proliferation (MCF-7 cells) | activity at 5 µM (MCF-7 cells; Homo sapiens, MCF7, 72 h, MCF-7 cells, DMSO = 1, read-out: Relative Cancer Cell Proliferation Effects at 5 μM) | Relative Binding Affinity (hER) | Relative Estrogenic Activity (hERα [2]; MCF-7 cells transfected with hERα, DMSO set as 1) | estrogenic effect (hERα [2]; MCF-7 cells, hERα, compared with DMSO and tamoxifen) | Relative Antiestrogenic Activity at 2.5 μM (hERα [2]; with 1 nM estradiol, 1 nM E2 used as reference (1)) | agonistic effects against mutant hART877A (mutant hART877A) |
| --- | --- | --- | --- | --- | --- | --- | --- | --- | --- | --- |
| CCCCNC(=O)CCCCCCCCCCOCC1Cc2ccccc2CN1C(=O)c1cccc(F)c1 (stereo not shown) [Compound 2] | weak inhibitory activity | did not induce the dimerization of hERα | do not inhibit or stimulate the growth | slightly lower inhibition effects than compound 6 | 66% | 0.287 | 0.9 | do not exert any estrogenic effects | 0.75 | – |
| C[C@]1(O)CC[C@H]2[C@@H]3CCC4=CC(=O)CCC4=C3C=C[C@@]21C [Compound R1881, R1881] | – | – | – | – | – | – | – | – | – | significant agonism activity |
